Assay results: patent US20110015162A1, “15,16-Methylene-17-hydroxy-19-nor-21-carboxylic acid-steroid Y-lactone derivative, use thereof and medicinal products containing the derivative” (Bayer Schering Pharma Aktiengesellschaft, priority 2007, published 2011)
Like-named read-outs stand apart in the source and are kept apart here.

Assays:
progesterone receptor = molecular target: T1, progesterone receptor (Homo sapiens, UniProt P06401); assay: Progesterone receptor binding test; conditions: for Progesterone receptor (PR) Competition factor: CF 1 = affinity of progesterone, CF >1 lower affinity, <1 higher affinity; for CF PR/CF MR: ratio of competition factors CF(PR) and CF(MR)
T1 construct: made in house; host or cells: Hi5 insect cells (cytosol)
T1 sequence (P06401 1-933): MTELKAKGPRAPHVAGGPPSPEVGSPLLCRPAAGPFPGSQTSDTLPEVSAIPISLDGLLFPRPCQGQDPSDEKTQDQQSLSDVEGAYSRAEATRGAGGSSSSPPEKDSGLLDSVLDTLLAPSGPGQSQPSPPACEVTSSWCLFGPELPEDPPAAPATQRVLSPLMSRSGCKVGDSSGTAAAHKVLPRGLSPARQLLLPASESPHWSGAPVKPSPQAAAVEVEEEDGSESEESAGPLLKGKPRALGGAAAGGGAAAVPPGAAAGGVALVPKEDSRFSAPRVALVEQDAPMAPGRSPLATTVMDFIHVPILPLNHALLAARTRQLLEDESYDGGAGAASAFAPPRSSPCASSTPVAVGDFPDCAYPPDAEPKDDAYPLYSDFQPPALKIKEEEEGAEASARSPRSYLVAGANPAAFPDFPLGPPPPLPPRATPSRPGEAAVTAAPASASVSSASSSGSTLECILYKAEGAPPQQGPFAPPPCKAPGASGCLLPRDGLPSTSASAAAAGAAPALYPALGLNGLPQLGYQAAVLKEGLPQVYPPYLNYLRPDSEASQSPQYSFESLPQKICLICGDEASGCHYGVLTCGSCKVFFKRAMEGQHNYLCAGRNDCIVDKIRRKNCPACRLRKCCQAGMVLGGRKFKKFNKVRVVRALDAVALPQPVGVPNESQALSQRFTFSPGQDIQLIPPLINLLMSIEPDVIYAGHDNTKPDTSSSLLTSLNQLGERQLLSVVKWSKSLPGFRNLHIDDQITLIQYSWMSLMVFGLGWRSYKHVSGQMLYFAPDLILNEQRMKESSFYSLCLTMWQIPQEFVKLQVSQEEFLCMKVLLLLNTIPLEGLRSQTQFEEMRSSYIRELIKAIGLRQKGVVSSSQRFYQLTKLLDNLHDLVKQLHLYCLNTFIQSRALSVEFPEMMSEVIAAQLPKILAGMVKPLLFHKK
Description: 1. Progesterone Receptor Binding Test:
(§1) Using cytosol from progesterone receptor-expressing insect cells (Hi5), competitive binding to the progesterone receptor was determined from the ability to displace ^3H-progesterone as reference substance from the receptor.

[1] = molecular target: T2, mineralocorticoid receptor (Homo sapiens, UniProt P08235); assay: Mineralocorticoid receptor binding test; parameters: made in house; host or cells: Hi5 insect cells (cytosol); conditions: reference substance 3H-aldosterone, cytosol from MR-expressing insect cells (Hi5)
T2 sequence (P08235 1-984): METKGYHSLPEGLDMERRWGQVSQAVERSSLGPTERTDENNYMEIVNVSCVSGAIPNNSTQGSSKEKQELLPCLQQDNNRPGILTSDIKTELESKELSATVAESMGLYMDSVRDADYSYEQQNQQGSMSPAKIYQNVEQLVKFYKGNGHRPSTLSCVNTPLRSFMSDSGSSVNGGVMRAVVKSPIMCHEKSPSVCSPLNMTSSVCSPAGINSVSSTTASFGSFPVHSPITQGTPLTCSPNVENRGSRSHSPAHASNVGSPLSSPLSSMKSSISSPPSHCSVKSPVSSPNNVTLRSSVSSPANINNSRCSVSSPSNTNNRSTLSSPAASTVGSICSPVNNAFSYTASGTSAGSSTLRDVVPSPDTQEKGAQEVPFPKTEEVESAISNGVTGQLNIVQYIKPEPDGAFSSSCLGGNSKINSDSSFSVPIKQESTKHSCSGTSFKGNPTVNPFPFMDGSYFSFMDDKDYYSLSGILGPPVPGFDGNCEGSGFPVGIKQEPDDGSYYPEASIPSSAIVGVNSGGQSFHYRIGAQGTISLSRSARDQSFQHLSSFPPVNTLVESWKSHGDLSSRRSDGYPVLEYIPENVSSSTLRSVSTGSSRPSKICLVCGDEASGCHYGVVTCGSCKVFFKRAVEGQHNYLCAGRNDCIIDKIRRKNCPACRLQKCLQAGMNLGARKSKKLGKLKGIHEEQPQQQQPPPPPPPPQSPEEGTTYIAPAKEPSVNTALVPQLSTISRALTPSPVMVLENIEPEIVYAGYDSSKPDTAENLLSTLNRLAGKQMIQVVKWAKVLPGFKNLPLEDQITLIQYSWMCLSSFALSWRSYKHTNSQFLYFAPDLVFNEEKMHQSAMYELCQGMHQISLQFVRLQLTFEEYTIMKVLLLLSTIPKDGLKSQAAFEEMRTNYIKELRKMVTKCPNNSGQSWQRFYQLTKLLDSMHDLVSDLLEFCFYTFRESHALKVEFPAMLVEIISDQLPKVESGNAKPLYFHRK
Description: as §1
2. Mineralocorticoid Receptor Binding Test:
The test was carried out as in 1, with the following modifications: cytosol from mineralocorticoid receptor-expressing insect cells (Hi5) was used, and the reference substance was ^3H-aldosterone.

SMILES	IC50 (progesterone receptor) [nM]	Progesterone receptor (PR) Competition factor (progesterone receptor)	CF PR/CF MR (progesterone receptor)	Mineralocorticoid receptor (MR) Competition factor [1]	IC50 (progesterone receptor; displacement of 3H-progesterone, cytosol from PR-expressing insect cells (Hi5), read-out: Progesterone receptor (PR) IC50) [nM]
CC[C@]12CC[C@H]3[C@@H]([C@H]4C[C@H]4C4=CC(=O)CC[C@@H]43)[C@@H]1[C@@H]1C[C@@H]1[C@@]21C=CC(=O)O1 [Example 1, 6β,7β;15β,16β-Bismethylene-17β-hydroxy-18-methyl-19-nor-17α-pregna-4,20(Z)-dien-3-one-21-carboxylic acid γ-lactone]	41	0.76	0.48	1.6	
CC[C@]12CC[C@H]3[C@@H]([C@@H]4C[C@@H]4C4=CC(=O)CC[C@@H]43)[C@@H]1[C@@H]1C[C@@H]1[C@@]21C=CC(=O)O1 [Example 2, 6α,7α;15β,16β-Bismethylene-17β-hydroxy-18-methyl-19-nor-17α-pregna-4,20(Z)-dien-3-one-21-carboxylic acid γ-lactone]	630	24.37	5.54	4.4	
CC[C@]12CC[C@H]3[C@@H](C=CC4=CC(=O)CC[C@@H]43)[C@@H]1[C@@H]1C[C@@H]1[C@@]21C=CC(=O)O1 [Example 3, 17β-Hydroxy-18-methyl-15β,16β-methylene-19-nor-17α-pregna-4,6,20(Z)-trien-3-one-21-carboxylic acid γ-lactone]	72	2.72	1.81	1.5	
CC[C@]12CC[C@H]3[C@H]([C@@H]1[C@@H]1C[C@@H]1[C@@]21C=CC(=O)O1)[C@H](C)CC1=CC(=O)CC[C@@H]13 [Example 4A, 7α,18-Bismethyl-17β-hydroxy-15β,16β-methylene-19-nor-17α-pregna-4,20(Z)-dien-3-one-21-carboxylic acid γ-lactone]	48	2.66	4.43	0.6	
CC[C@@H]1CC2=CC(=O)CC[C@@H]2[C@H]2CC[C@@]3(CC)[C@@H]([C@@H]4C[C@@H]4[C@@]34C=CC(=O)O4)[C@H]12 [Example 5A, 17β-Hydroxy-7α-ethyl-18-methyl-15β,16β-methylene-19-nor-17α-pregna-4,20(Z)-dien-3-one-21-carboxylic acid γ-lactone]	300	12.00	12.00	1.0	
C=C[C@@H]1CC2=CC(=O)CC[C@@H]2[C@H]2CC[C@@]3(CC)[C@@H]([C@@H]4C[C@@H]4[C@@]34C=CC(=O)O4)[C@@H]21 [Example 6A, 17β-Hydroxy-7α-vinyl-18-methyl-15β,16β-methylene-19-nor-17α-pregna-4,20(Z)-dien-3-one-21-carboxylic acid γ-lactone]	120	4.85	3.23	1.5	
CC[C@]12CC[C@H]3[C@H]([C@@H]1[C@@H]1C[C@@H]1[C@@]21C=CC(=O)O1)[C@H](C1CC1)CC1=CC(=O)CC[C@@H]13 [Example 7A, 17β-Hydroxy-7α-cyclopropyl-18-methyl-15β,16β-methylene-19-nor-17α-pregna-4,20(Z)-dien-3-one-21-carboxylic acid γ-lactone]	380	14.22	3.03	4.7	
C[C@]12CC[C@H]3[C@@H](C[C@@H](CO)C4=CC(=O)CC[C@@H]43)[C@@H]1[C@@H]1C[C@@H]1[C@@]21C=CC(=O)O1 [Example 21, 17β-Hydroxy-6β-hydroxymethylene-15β,16β-methylene-19-nor-17α-pregna-4,20(Z)-dien-3-one-21-carboxylic acid γ-lactone]		159.27			4800
